Experimental data published in patent US12343377B2, “Combination therapies comprising a hypomethylation agent for treating cancer” (ALX Oncology Inc., priority 2020, dated 2025).

How the values were obtained:
[1] = biological target: MCL-1 (Homo sapiens, UniProt Q07820); conditions: selectivity profile; cited from earlier work
[2] = biological target: T1, BFL-1 (BCL2A1/A1) (Homo sapiens, UniProt Q16548); conditions: selectivity profile; cited from earlier work
T1 sequence (Q16548 1-175): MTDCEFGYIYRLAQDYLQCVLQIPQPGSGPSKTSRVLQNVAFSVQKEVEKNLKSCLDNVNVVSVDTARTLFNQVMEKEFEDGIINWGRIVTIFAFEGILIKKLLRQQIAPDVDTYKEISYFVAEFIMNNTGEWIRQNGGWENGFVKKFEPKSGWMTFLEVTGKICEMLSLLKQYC

[3] = biological target: BCL-XL (Homo sapiens, UniProt Q07817); conditions: selectivity profile; cited from earlier work
Chain of BCL-XL (Q07817 whole entry, species assumed): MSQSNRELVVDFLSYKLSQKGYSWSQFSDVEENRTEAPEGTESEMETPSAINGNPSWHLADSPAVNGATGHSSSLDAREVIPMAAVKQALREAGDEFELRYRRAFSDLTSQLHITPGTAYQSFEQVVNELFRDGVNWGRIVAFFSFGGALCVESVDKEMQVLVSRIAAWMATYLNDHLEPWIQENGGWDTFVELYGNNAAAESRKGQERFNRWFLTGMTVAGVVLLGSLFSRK

[4] = test system: BCL-XL-dependent cells, such as platelets; conditions: cited from earlier work
[5] = test system: HL60 cells; assay: In vitro phagocytosis assay, HL60 cells by human monocyte-derived macrophages; format: cell-based; conditions: single agent, compared to untreated cells; FIG. 1A
Protocol: CD14^+ monocytes were purified by negative selection using the Classical Monocytes Isolation Kit, human (Miltenyi Biotec) and LS columns (Miltenyi Biotec) according to the manufacturer's protocol. CD14^+ monocytes were seeded into 150 mm tissue culture dishes (Corning) at 6 million cells per dish in 25 mL medium comprised of RPMI complete media, supplemented with 50 ng/mL M-CSF (Miltenyi Biotec), 10% FBS (Thermo Fisher Scientific), 1% penicillin/streptomycin, and 1% GlutaMAX. Cells were cultured for seven to eleven days.
Target cells, HL60 and OCI-AML3 cells, were washed once in PBS and labeled with the Celltrace CFSE Cell Proliferation kit (Thermo Fisher Scientific) in suspension with 300 nM CFSE (carboxyfluorescein succinimidyl ester) according to the manufacturer's instructions and resuspended in RPMI complete media. Target cells were incubated overnight with two-fold serial dilutions of azacitidine between 39 nM to 2.5 μM in RPMI complete media. Prior to incubation with macrophages, cells were resuspended in RPMI. Macrophages were detached from culture plates by washing once with PBS and incubation in TrypLE Select for 20 minutes at 37° C. […]
Briefly HL60 cells and OCI-AML3 cells (i.e., “target cells”) were labeled with CFSE (carboxyfluorescein succinimidyl ester) and treated with azacitidine (aza) for 48 hours. […] Macrophage cells were pelleted, stained, and analyzed via flow cytometry. […]

[6] = Human PBMC viability assay; format: cell-based; conditions: CD11c+ dendritic cells in human PBMC cultures, 1.25 pM azacitidine alone, FIG. 2, read-out: reduction of the viability of CD11c^+ dendritic cells
Protocol: PBMCs were counted and plated in complete RPMI. Drug A alone or in combination azacitidine was added to the PBMCs. Following 72-hour or five day incubation at 37° C., cells were stained with a fixable viability dye followed by staining with cell surface markers: CD3, CD19, CD14, CD56, CD16, CD11c, and HLADR (Biolegend). Cells were processed for flow cytometry by Attune NxT and analyzed by FlowJo 10.3. Viability gating strategy included double singlet exclusion by FSC height and FSC width followed by cell type surface marker then viability gate. CD11c DCs were identified as lineage negative (CD3, CD19, CD14, CD16 and CD56) HLADR^+ CD11c^+. Percent viable cells were tabulated using GraphPad Prism 8.
Dendritic cells (DCs) are antigen-presenting cells (also known as accessory cells) of the mammalian immune system. They are believed to act as messengers between the innate and the adaptive immune systems.

[7] = test system: calreticulin on the surface of HL60 cells; assay: Analysis of calreticulin cell-surface expression, HL60; format: cell-based, human; conditions: with increased concentrations of azacitidine, 72 hrs; FIG. 3A
Protocol: (§1) To detect changes in calreticulin expression levels in human acute myeloid leukemia cell lines HL60, OCI-AML3 and MV4-11, cells were incubated with either 2.5 pM or 75 nM of azacitidine (Selleckchem) in complete growth medium (RPMI1640, 10% FBS) in a 37° C. 5% CO2 incubator for 72 hrs. Cells grown in complete growth medium was used as a control for calreticulin baseline expression. After incubation, cells were harvested and washed once in staining buffer (PBS, 2% FBS), stained in PBS with fixable live/dead stain (Invitrogen) for 1 hour at 4° C., washed once in staining buffer and incubated with 500 ng/mL of calreticulin-AF647 (clone 1G6A7, Novus). After a 1 hour incubation at 4° C., cells were washed twice in staining buffer and fixed in 0.5% paraformaldehyde. Cells were analyzed on an Attune (ThermoScientific), and subsequent data analysis using Flowjo 10.6.
(§2) HL60 is a TP53null FLT3 wt cell line; OCI-AML3 is TP53 wt and FLT3 wt; and MV4-11 is TP53 wt and FLT3-ITD.

[8] = test system: calreticulin on the surface of OCI-AML3 cells; assay: Analysis of calreticulin cell-surface expression, OCI-AML3; format: cell-based, human; conditions: with increased concentrations of azacitidine, 72 hrs; FIG. 3A
Protocol: as §1, §2

[9] = test system: calreticulin on the surface of MV4-11 cells; assay: Analysis of calreticulin cell-surface expression, MV4-11; format: cell-based, human; conditions: for expression of the pro-phagocytic signal calreticulin in the MV411 AML cell line: FIG. 3B
Protocol: as §1, §2
(§3) The effect of azacitidine or venetoclax on the expression levels of calreticulin on the cell surfaces of MV4-11 and primary AML cells from two different human patients was also tested.

[10] = test system: calreticulin on primary AML blasts; assay: Analysis of calreticulin cell-surface expression, primary AML blasts; format: cell-based; conditions: two human patients; FIG. 3B
Protocol: as §3

[11] = test system: CD47 on the cell surfaces of MV4-11; assay: CD47 cell-surface expression, MV4-11; format: cell-based, human; conditions: FIG. 3C
Protocol: (§4) In another set of assays, the effect of azacitidine or venetoclax on the expression levels of CD47 on the cell surfaces of MV4-11 and primary AML cells from two different human patients was tested.

[12] = test system: CD47 on primary AML blasts; assay: CD47 cell-surface expression, primary AML blasts; format: cell-based; conditions: two human patients; FIG. 3C
Protocol: as §4

[13] = test system: HL60 tumor xenografts; assay: Subcutaneous HL60 leukemia xenograft model; format: in vivo, mice
Protocol: (§5) Tumors were monitored until average size of all tumors reached 105 mm^3 for HL60, 75 mm^3 for MV4-11 and 112 mm^3 for OCI-AML3. […] Mice in HL60 and OCI-AML3 tumor models were dosed intraperitoneally (IP) five times, three days apart at 5 mg/kg for azacitidine, and six times, three days apart at 10 mg/kg for Drug A. MV4-11 tumor bearing mice were dosed IP three times per week at 5 mg/kg for azacitidine and 10 mg/kg for Drug A. Tumors were measured in two dimensions with calipers and tumor volume was calculated as: length×width×width×0.5, where length was the larger of the two measurements. Animals were sacrificed when tumor reached a volume of ˜2000 mm^3.
(§6) In this Example, the anti-tumor activity of Drug A in combination with azacitidine (aza) was assessed mice bearing either HL60, OCI-AML3 and MV4-11 human leukemia tumor xenografts. (See Example 1 for experimental details.) HL60 is a TP53null FLT3 wt cell line; OCI-AML3 is TP53 wt and FLT3 wt; and MV4-11 is TP53 wt and FLT3-ITD.
(§7) Mice bearing HL60 xenografted tumors were randomized to 4 groups of 4-5 mice each. One group of mice was given (a) Drug A at 10 mg/kg IP (Q3D, 6 doses total), (b) aza at 5 mg/kg IP (Q3D, 5 doses total), (c) both Drug A and aza (at the doses and administration schedule for each single agent), or (d) vehicle. Mice bearing OCI-AML3 xenografts were similarly randomized and treated. […]

[14] = test system: OCI-AML3 tumor xenografts; assay: Subcutaneous OCI-AML3 leukemia xenograft model; format: in vivo, mice; conditions: day 20, Drug A 10 mg/kg IP Q3D 6 doses, aza 5 mg/kg IP Q3D 5 doses
Protocol: as §5, §6, §7

[15] = test system: MV4-11 tumor xenografts; assay: Subcutaneous MV4-11 leukemia xenograft model; format: in vivo, mice; conditions: day 26, Drug A 10 mg/kg and aza 5 mg/kg IP three times per week
Protocol: as §5, §6
Mice bearing MV4-11 xenografts were randomized into 4 groups of 9-10 each. One group of mice was given Drug A at 10 mg/kg IP (3 times per week), the second group of mice was given aza at 5 mg/kg IP (three times per week), the third group was given both Drug A and aza (at the doses and administration schedule for each single agent, and the fourth group was given vehicle. […]

[16] = test system: HL60-LUC2 acute myeloid leukemic model; assay: Disseminated HL60-LUC2 systemic leukemic model, Drug A and azacitidine; format: in vivo, mice
Protocol: After transplantation of HL60-LUC2 cells by intravenous tail injection into immunodeficient NSG mice (7.5E6 cells/animal), engraftment was confirmed by bioluminescence imaging and mice were randomized into 4 groups (10 mice/group). Treatment was performed as shown Table A below.
Treatment was continued until mice received 14 doses of single agent Drug A, single agent azacitidine, or Drug A in combination with azacitidine.

[17] = cited from earlier work
[18] = test system: HL60-LUC2 acute myeloid leukemic model; assay: Disseminated HL60-LUC2 systemic leukemic model, Drug A and venetoclax; conditions: monotherapy; Drug A 30 mg/kg IP, venetoclax 100 mg/kg oral gavage, Q3D 5 doses; FIG. 8
Protocol: The HL60LUC2 (ATCC) cell line was injected through the tail vein of NOD-SCID female mice at a concentration of 7.5×10^6 cells per in RPMI 1640. Bioluminescence imaging (BLI) acquisition and analysis were performed using the IVIS Spectrum (Perkin Elmer) to monitor tumor growth. Firefly D-luciferin (Regis Technologies) was diluted to 15 mg/ml stock in phosphate-buffered saline and filtered before use. Groups of mice were placed in the specimen chamber and injected with 200 μl of D-luciferin intraperitoneally (IP). BLI whole-body signal was acquired at approximately 10 minutes post injection. BLI flux values were serially monitored twice a week with initial scans acquired three days post inoculation of mice. Living Image Software (Perkin Elmer) was used to quantify BLI average total flux values (photons/second, p/s) following the manual construction of regions of interest over the entire mouse body. […] Drug A-treated mice were dosed by IP injection at 30 mg/kg, five times total at three days apart. Animals were sacrificed when the total flux reached 1E11 or loss in body weight of greater than 20%.
Venetoclax and Drug A therapies were initiated 4 days post engraftment and dosed every 3 days for a total of 5 doses.

Chain of MCL-1 (Q07820 whole entry, species assumed): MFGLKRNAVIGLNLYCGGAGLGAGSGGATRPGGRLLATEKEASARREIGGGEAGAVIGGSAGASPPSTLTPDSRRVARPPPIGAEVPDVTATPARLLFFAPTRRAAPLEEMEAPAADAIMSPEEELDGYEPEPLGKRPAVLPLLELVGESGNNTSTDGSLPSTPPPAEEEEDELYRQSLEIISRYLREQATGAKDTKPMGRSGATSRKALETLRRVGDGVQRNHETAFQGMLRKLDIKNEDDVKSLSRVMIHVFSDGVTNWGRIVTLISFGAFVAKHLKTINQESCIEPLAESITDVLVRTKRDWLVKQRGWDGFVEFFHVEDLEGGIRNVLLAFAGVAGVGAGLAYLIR

For `O=C(c1cc(-c2cc3c(cc2C(=O)N2Cc4ccccc4C[C@H]2CN2CCOCC2)OCO3)n2c1CCCC2)N(c1ccccc1)c1ccc(O)cc1` [Drug S55746, (S)—N-(4-hydroxyphenyl)-3-(6-(3-(morpholinomethyl)-1,2,3,4-tetrahydroisoquinoline-2-carbonyl)benzo[d][1,3]dioxol-5-yl)-N-phenyl-5,6,7,8-tetrahydroindolizine-1-carboxamide], the “binding to MCL-1” value [1] is listed as “no significant binding”, the “binding to BFL-1 (BCL2A1/A1)” value [2] is listed as “no significant binding” and the “affinity for BCL-XL” value [3] is listed as “poor affinity”. The “cytotoxic activity on BCL-XL-dependent cells, such as platelets” value [4] was “no cytotoxic activity”.

For `Nc1ncn([C@@H]2O[C@H](CO)[C@@H](O)[C@H]2O)c(=O)n1` [azacitidine, 4-amino-1-[(2R,3R,4S,5R)-3,4-dihydroxy-5-(hydroxymethyl)oxolan-2-yl]-1,3,5-triazin-2-one], the “macrophage-mediated phagocytosis of HL60 cells” value [5] was “stimulated macrophage-mediated phagocytosis of HL60 cells slightly”, the cytotoxicity at 1.25 pM [6] was about 40% and the “expression of calreticulin on the surface of HL60 cells” value [7] was “increased”. The “expression of calreticulin on the surface of OCI-AML3 cells” value [8] was “increased”, the “expression of the pro-phagocytic signal calreticulin in the MV411 AML cell line” value [9] was “increase” and the “expression of calreticulin on the surface of MV4-11 cells” value ([9]; with increased concentrations of azacitidine, 72 hrs, FIG. 3A) was “increased”. The “expression of the pro-phagocytic signal calreticulin in primary AML blasts” value [10] was “increase”, the “expression of the anti-phagocytic signal CD47 in the MV411 AML cell line” value [11] was “increase” and the “expression of the anti-phagocytic signal CD47 in primary AML blasts” value [12] was “increase”. The HL60 tumor growth ([13]; day 20, compared to vehicle control, FIG. 4A) was “minimally inhibited”, the “% tumor growth inhibition (TGI)” value ([13]; day 20, HL60, Drug A 10 mg/kg IP Q3D 6 doses, aza 5 mg/kg IP Q3D 5 doses) was 42% and the “% tumor growth inhibition (TGI)” value [14] was 33%. The “% tumor growth inhibition (TGI)” value [15] was 49%, the tumor growth ([16]; 14 doses, Drug A 30 mg/kg, azacitidine 5 mg/kg, FIG. 5C) was “moderate tumor growth inhibition” and the “Day by which all mice succumbed” value ([16]; second set of experiments, single agent, Q3D 14 doses, FIG. 5D) was about 85 days.

For `CC1(C)CCC(CN2CCN(c3ccc(C(=O)NS(=O)(=O)c4ccc(NCC5CCOCC5)c([N+](=O)[O-])c4)c(Oc4cnc5[nH]ccc5c4)c3)CC2)=C(c2ccc(Cl)cc2)C1` [venetoclax, 4-(4-{[2-(4-chlorophenyl)-4,4dimethylcyclohex-1-en-1-yl]methyl}piperazin-1-yl)-N-({3-nitro-4-[(tetrahydro-2H-pyran-4ylmethyl)amino]phenyl}sulfonyl)-2-(1H-pyrrolo[2,3-b]pyridin-5-yloxy)benzamide], the “expression of the pro-phagocytic signal calreticulin in the MV411 AML cell line” value [9] was “increase”, the “expression of the pro-phagocytic signal calreticulin in primary AML blasts” value [10] was “increase” and the “expression of the anti-phagocytic signal CD47 in the MV411 AML cell line” value [11] was “increase”. The “expression of the anti-phagocytic signal CD47 in primary AML blasts” value [12] was “increase”, the aqueous solubility [17] was “very low” and the tumor growth [18] was “moderate tumor growth inhibition”.
